Like-named read-outs stand apart in the source and are kept apart here.
How the values were obtained:
[1] = target: T1, glutathione-S-transferase (GST) tagged LXRalpha LBD (ligand binding domain) (Homo sapiens, UniProt Q13133); assay: LanthaScreen TR-FRET Liver X Receptor Coactivator Assay, co-activator recruitment to LXRalpha LBD; assay type: biochemical; settings: for Emax: efficacy at max dose, in relation to reference dual agonist T0901317, read-out: LXR alpha Activity @ max dose (%); for LXR alpha IP (nM) / EC50: potency (Inflection Point, IP), co-activator recruitment to LXRalpha LBD, in relation to T0901317; for EC50: read-out: LXR alpha IP
T1 construct: purchased Invitrogen pv4655
T1 sequence (Q13133 209-447 limits assumed): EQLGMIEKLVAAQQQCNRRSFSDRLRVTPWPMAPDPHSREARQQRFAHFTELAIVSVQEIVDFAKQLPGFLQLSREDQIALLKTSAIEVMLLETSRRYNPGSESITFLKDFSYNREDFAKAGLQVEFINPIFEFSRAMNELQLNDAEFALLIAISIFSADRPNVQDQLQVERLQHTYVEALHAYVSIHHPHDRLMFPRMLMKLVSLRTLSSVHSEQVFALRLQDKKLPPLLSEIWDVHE
Method in brief: (§1)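 Efficacy (Emax) and inflection-point potency were scaled to reference agonist T0901317, acting on both LXR subtypes. Ligand-driven coactivator peptide recruitment was detected by TR-FRET after room-temperature incubation with terbium anti-GST antibody.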

[2] = target: T2, glutathione-S-transferase (GST) tagged LXRbeta LBD (ligand binding domain) (Homo sapiens, UniProt P55055); assay: LanthaScreen TR-FRET Liver X Receptor Coactivator Assay, co-activator recruitment to LXRbeta LBD; assay type: biochemical; settings: for Emax: read-out: LXR beta Activity @ max dose (%); for EC50: potency (Inflection Point, IP), co-activator recruitment to LXRbeta LBD, in relation to T0901317
T2 construct: purchased Invitrogen pv4658.pps
T2 sequence (P55055 222-460 limits assumed): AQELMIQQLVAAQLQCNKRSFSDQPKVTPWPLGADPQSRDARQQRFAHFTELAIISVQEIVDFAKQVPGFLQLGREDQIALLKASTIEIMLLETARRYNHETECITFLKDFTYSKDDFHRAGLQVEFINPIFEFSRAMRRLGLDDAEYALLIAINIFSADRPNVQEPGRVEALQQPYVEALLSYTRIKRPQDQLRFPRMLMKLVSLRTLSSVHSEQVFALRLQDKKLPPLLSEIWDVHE
Method in brief: as §1

[3] = efficacy at max dose, in relation to reference dual agonist T0901317

Compound | Emax [1] [%] | LXR alpha IP (nM) [1] | Emax [2, 3] [%] | EC50 ([2]; read-out: LXR beta IP) [nM] | EC50 [1] [nM] | EC50 ([2]; LXR beta IP (nM)) [nM] | Emax [2] [%]
COc1cccc([C@@](O)(C(=O)N2CCCC(CC3CCN(c4ccc(C(=O)N(C)C)c(Cl)c4)CC3)CC2)C(F)(F)F)c1 (stereo partly drawn) [Example 2-161, 2-chloro-N,N-dimethyl-4-[4-({1-[(2R)-3,3,3-trifluoro-2-hydroxy-2-(3-methoxy-phenyl)propanoyl]azepan-4-yl}methyl)piperidin-1-yl]benzamide] | 0 | NO IP | 28 | 13 | – | – | –
CN(C)C(=O)c1ccc(N2CCC(CCC3CCN(C(=O)[C@](O)(c4ccccc4)C(F)(F)F)CC3)CC2)cc1Cl [Example 2-162, 2-chloro-N,N-dimethyl-4-[4-(2-{1-[(2R)-3,3,3-trifluoro-2-hydroxy-2-phenyl-propanoyl]piperidin-4-yl}ethyl)piperidin-1-yl]benzamide] | 12 | NO IP | 38 | 502 | – | – | –
COc1cccc(C(O)(C(=O)N2CCC(CCC3CCN(c4ccc(C(=O)N(C)C)c(Cl)c4)CC3)CC2)C(F)(F)F)c1 (stereo not shown) [Example 2-163, 2-chloro-N,N-dimethyl-4-[4-(2-{1-[3,3,3-trifluoro-2-hydroxy-2-(3-methoxyphenyl)propanoyl]piperidin-4-yl}ethyl)piperidin-1-yl]benzamide] | 0 | NO IP | 39 | 728 | – | – | –
CN(C)C(=O)c1ccc(N2CCC(CC3CCN(C(=O)[C@](O)(c4cccc(F)c4)C(F)F)CC3)CC2)cc1Cl [Example 2-164, 2-chloro-4-[4-({1-[(2R)-3,3-difluoro-2-(3-fluorophenyl)-2-hydroxy-propanoyl]piperidin-4-yl}methyl)piperidin-1-yl]-N,N-dimethyl-benzamide] | 29 | – | 70 | 12 | 294 | – | –
CN(C)C(=O)c1ccc(N2CCC(CC3CCN(C(=O)[C@](O)(c4ccccc4)C(F)F)CC3)CC2)cc1Cl [Example 2-166, 2-chloro-4-[4-({1-[(2R)-3,3-difluoro-2-hydroxy-2-phenyl-propanoyl]piperidin-4-yl}methyl)piperidin-1-yl]-N,N-dimethyl-benzamide] | 20 | – | 46 | 14 | 296 | – | –
CN(C)C(=O)c1ccc(N2CCC(CC3CCN(C(=O)C(N)(c4cccc(Cl)c4)C(F)(F)F)CC3)CC2)cc1Cl (stereo not shown) [Example 2-167, 4-[4-({1-[2-amino-2-(3-chlorophenyl)-3,3,3-trifluoro-propanoyl]piperidin-4-yl}methyl)piperidin-1-yl]-2-chloro-N,N-dimethyl-benzamide] | 18 | NO IP | 75 | 37 | – | – | –
CN(C)C(=O)c1ccc(N2CCC(CC3CCN(C(=O)C(O)(c4cccc5ccccc45)C(F)(F)F)CC3)CC2)cc1Cl (stereo not shown) [Example 2-168, 2-chloro-N,N-dimethyl-4-(4-{[1-(3,3,3-trifluoro-2-hydroxy-2-naphthalen-1-ylpropanoyl)piperidin-4-yl]methyl}piperidin-1-yl)benzamide] | 0 | NO IP | 21 | 58 | – | – | –
CN(C)C(=O)c1ccc(N2CCC(CC3CCN(C(=O)C(O)(c4cccc5c4CCC5)C(F)(F)F)CC3)CC2)cc1Cl (stereo not shown) [Example 2-170, 2-chloro-4-[4-({1-[2-(2,3-dihydro-1H-inden-4-yl)-3,3,3-trifluoro-2-hydroxy-propanoyl]piperidin-4-yl}methyl)piperidin-1-yl]-N,N-dimethyl-benzamide] | 0 | NO IP | 19 | 27 | – | – | –
COc1cccc([C@@](O)(C(=O)N2CCC(CC3(C)CCN(c4ccc(C(=O)N(C)C)c(Cl)c4)CC3)CC2)C(F)(F)F)c1 [Example 3-1, (R)-2-chloro-N,N-dimethyl-4-(4-methyl-4-((1-(3,3,3-trifluoro-2-hydroxy-2-(3-methoxyphenyl)propanoyl)piperidin-4-yl)methyl)piperidin-1-yl)benzamide] | 5 | NO IP | – | – | – | 35 | 63
O=C(c1ccc(N2CCC(CC3CCN(C(=O)[C@](O)(c4ccccc4)C(F)(F)F)CC3)CC2)cc1Cl)N1CCC1 [Example 4-1, (R)-1-(4-((1-(4-(azetidine-1-carbonyl)-3-chlorophenyl)piperidin-4-yl)methyl)piperidin-1-yl)-3,3,3-trifluoro-2-hydroxy-2-phenylpropan-1-one] | 31 | – | 72 | 53 | 555 | – | –
CC(C)N(C)C(=O)c1ccc(N2CCC(CC3CCN(C(=O)[C@](O)(c4ccccc4)C(F)(F)F)CC3)CC2)cc1Cl [Example 4-2, 2-chloro-N-methyl-N-(1-methylethyl)-4-[4-({1-[(2R)-3,3,3-trifluoro-2-hydroxy-2-phenyl-propanoyl]piperidin-4-yl}methyl)piperidin-1-yl]benzamide] | 30 | – | 73 | 29 | 270 | – | –
O=C(c1ccc(N2CCC(CC3CCN(C(=O)[C@](O)(c4ccccc4)C(F)(F)F)CC3)CC2)cc1Cl)N1CCC[C@H]1CO [Example 4-3, (2R)-3-(4-{[1-(3-chloro-4-{[(2S)-2-(hydroxy-methyl)pyrrolidin-1-yl]carbonyl}phenyl)piperidin-4-yl]methyl}piperidin-1-yl)-1,1,1-trifluoro-3-oxo-2-phenylpropan-2-ol] | 30 | – | 63 | 5 | 50 | – | –
O=C(c1ccc(N2CCC(CC3CCN(C(=O)[C@](O)(c4ccccc4)C(F)(F)F)CC3)CC2)cc1Cl)N1CC[C@@H](CO)C1 [Example 4-4, (2R)-3-(4-{[1-(3-chloro-4-{[(3R)-3-(hydroxymethyl)pyrrolidin-1-yl]carbonyl}phenyl)piperidin-4-yl]methyl}piperidin-1-yl)-1,1,1-trifluoro-3-oxo-2-phenylpropan-2-ol] | 24 | – | 56 | 179 | 459 | – | –
O=C(c1ccc(N2CCC(CC3CCN(C(=O)[C@](O)(c4ccccc4)C(F)(F)F)CC3)CC2)cc1Cl)N1C2CCC1CC2 [Example 4-5, (2R)-3-[4-({1-[4-(7-azabicyclo[2.2.1]hept-7-ylcarbonyl)-3-chlorophenyl]piperidin-4-yl}methyl)piperidin-1-yl]-1,1,1-trifluoro-3-oxo-2-phenylpropan-2-ol] | 29 | – | 53 | 59 | 401 | – | –
C[C@H]1CCCN1C(=O)c1ccc(N2CCC(CC3CCN(C(=O)[C@](O)(c4ccccc4)C(F)(F)F)CC3)CC2)cc1Cl [Example 4-6, (2R)-3-(4-{[1-(3-chloro-4-{[(2S)-2-methyl-pyrrolidin-1-yl]carbonyl}phenyl)piperidin-4-yl]methyl}piperidin-1-yl)-1,1,1-trifluoro-3-trifluoro-3-oxo-2-phenylpropan-2-ol] | 39 | – | 78 | 38 | 331 | – | –
O=C(c1ccc(N2CCC(OC3CCN(C(=O)[C@](O)(c4ccccc4)C(F)(F)F)CC3)CC2)cc1Cl)N1CCC[C@H]1CO [Example 4-7, (2R)-3-(4-{[1-(3-chloro-4-{[(2S)-2-(hydroxy-methyl)pyrrolidin-1-yl]carbonyl}phenyl)piperidin-4-yl]oxy}piperidin-1-yl)-1,1,1-trifluoro-3-oxo-2-phenylpropan-2-ol] | 50 | – | 76 | 31 | 516 | – | –

— patent US10752587B2, “Homobispiperidinyl derivatives as liver X receptor beta agonists, compositions and their use” (Merck Sharp & Dohme Corp., priority 2015, dated 2020)
